For assay [1], the system named is Digitaria sanguinalis. Kind of assay: Pre-emergence herbicidal activity against Digitaria sanguinalis (hairy crabgrass) assessed as reduction of seed germination at 1 ppm after 7 to 21 days by pot test. In kind it is functional, organism-based.
Assay [2] relates to Amaranthus viridis. The assay can be described thus: Pre-emergence herbicidal activity against Amaranthus viridis assessed as reduction of seed germination at 1 ppm after 7 to 21 days by pot test. Format: functional, organism-based.
A further assay concerns Fusarium sp. Kind of assay: Antifungal activity against Fusarium sp. assessed as fungal growth (reference value: 77 mm). Format: functional.
Assay [3] deals with Amaranthus viridis. The assay can be described thus: Post-emergence herbicidal activity against Amaranthus viridis assessed as reduction of seed germination at 1000 ppm after 5 to 25 days by pot test. In kind it is functional, organism-based.
The subject of the next assay is Alternaria solani. Kind of assay: Antifungal activity against Alternaria solani assessed as fungal growth (reference value: 52 mm). Format: functional.
Assay [4] relates to Cynodon dactylon. Kind of assay: Post-emergence herbicidal activity against Cynodon dactylon assessed as reduction of seed germination at 1000 ppm after 5 to 25 days by pot test. In kind it is functional, organism-based.
Assay [5] relates to Digitaria sanguinalis. Kind of assay: Post-emergence herbicidal activity against Digitaria sanguinalis (hairy crabgrass) assessed as reduction of seed germination at 1000 ppm after 5 to 25 days by pot test. In kind it is functional, organism-based.
The test system of assay [6] is Parthenium hysterophorus. The assay can be described thus: Post-emergence herbicidal activity against Parthenium hysterophorus assessed as reduction of seed germination at 1000 ppm after 5 to 25 days by pot test. In kind it is functional, organism-based.
Another assay concerns Plasmopara viticola. The assay can be described thus: Antifungal activity against Plasmopara viticola assessed as infection (reference value: 100%). In kind it is functional.
Assay [7] has as its system Amaranthus viridis. Kind of assay: Pre-emergence herbicidal activity against Amaranthus viridis assessed as reduction of seed germination at 1000 ppm after 7 to 21 days by pot test. In kind it is functional, organism-based.
Assay [8] relates to Euphorbia hirta. The assay can be described thus: Post-emergence herbicidal activity against Euphorbia hirta assessed as reduction of seed germination at 1000 ppm after 5 to 25 days by pot test. In kind it is functional, organism-based.
Assay [9] concerns Digitaria sanguinalis. The assay can be described thus: Pre-emergence herbicidal activity against Digitaria sanguinalis (hairy crabgrass) assessed as reduction of seed germination at 1000 ppm after 7 to 21 days by pot test. In kind it is functional, organism-based.
The subject of assay [10] is Cynodon dactylon. The assay can be described thus: Post-emergence herbicidal activity against Cynodon dactylon assessed as reduction of seed germination at 0.48 ppm after 5 to 25 days by pot test. In kind it is functional, organism-based.
The test system of assay [11] is Digitaria sanguinalis. Kind of assay: Post-emergence herbicidal activity against Digitaria sanguinalis (hairy crabgrass) assessed as reduction of seed germination at 0.48 ppm after 5 to 25 days by pot test. Format: functional, organism-based.
Assay [12] concerns Euphorbia hirta. The assay can be described thus: Post-emergence herbicidal activity against Euphorbia hirta assessed as reduction of seed germination at 0.48 ppm after 5 to 25 days by pot test. Format: functional, organism-based.
In assay [13] the test system is Parthenium hysterophorus. The assay can be described thus: Post-emergence herbicidal activity against Parthenium hysterophorus assessed as reduction of seed germination at 0.48 ppm after 5 to 25 days by pot test. In kind it is functional, organism-based.
The subject of assay [14] is Amaranthus viridis. Kind of assay: Post-emergence herbicidal activity against Amaranthus viridis assessed as reduction of seed germination at 0.48 ppm after 5 to 25 days by pot test. Format: functional, organism-based.
The subject of assay [15] is Amaranthus viridis. The assay can be described thus: Post-emergence herbicidal activity against Amaranthus viridis assessed as reduction of seed germination at 1.22 ppm after 5 to 25 days by pot test. Format: functional, organism-based.
The test system of assay [16] is Parthenium hysterophorus. Kind of assay: Post-emergence herbicidal activity against Parthenium hysterophorus assessed as reduction of seed germination at 1.22 ppm after 5 to 25 days by pot test. In kind it is functional, organism-based.
Assay [17] has as its system Cynodon dactylon. The assay can be described thus: Post-emergence herbicidal activity against Cynodon dactylon assessed as reduction of seed germination at 1.22 ppm after 5 to 25 days by pot test. Format: functional, organism-based.
Assay [18] concerns Euphorbia hirta. The assay can be described thus: Post-emergence herbicidal activity against Euphorbia hirta assessed as reduction of seed germination at 1.22 ppm after 5 to 25 days by pot test. In kind it is functional, organism-based.
Assay [19] concerns Digitaria sanguinalis. Kind of assay: Post-emergence herbicidal activity against Digitaria sanguinalis (hairy crabgrass) assessed as reduction of seed germination at 1.22 ppm after 5 to 25 days by pot test. Format: functional, organism-based.
The subject of assay [20] is Digitaria sanguinalis. The assay can be described thus: Pre-emergence herbicidal activity against Digitaria sanguinalis (hairy crabgrass) assessed as reduction of seed germination at 1.50 ppm after 7 to 21 days by pot test. In kind it is functional, organism-based.
In assay [21] the test system is Amaranthus viridis. The assay can be described thus: Pre-emergence herbicidal activity against Amaranthus viridis assessed as reduction of seed germination at 1.50 ppm after 7 to 21 days by pot test. Format: functional, organism-based.

Calls of active or inactive are those of the source. The rule behind the calls is not given here.

On to `CCC(CC)Nc1c([N+](=O)[O-])cc(C)c(C)c1[N+](=O)[O-]`, for which the outcome with Digitaria sanguinalis [1] and with Amaranthus viridis [2] was Active.
`Fc1ccc(NCn2nc(COc3ccc(Cl)cc3)n(/N=C/c3ccc(-c4ccc(Cl)cc4Cl)o3)c2=S)cc1Cl`: the figures for the Activity in the assay on Fusarium sp., in the assay on Alternaria solani and in the assay on Plasmopara viticola were 75 mm, 52 mm and 100%, respectively. Also, the outcome in the assay on Amaranthus viridis [3], with Cynodon dactylon [4], with Digitaria sanguinalis [5], in the assay with Parthenium hysterophorus [6], in the assay with Amaranthus viridis [7] and in the assay with Euphorbia hirta [8] was inactive. Further, the result with Digitaria sanguinalis [9] was inactive.
Regarding `C[n+]1ccc(-c2cc[n+](C)cc2)cc1`, the result in the assay on Cynodon dactylon [10], in the assay on Digitaria sanguinalis [11], in the assay on Euphorbia hirta [12], with Parthenium hysterophorus [13] and in the assay on Amaranthus viridis [14] was Active.
As for `Fc1ccc(NCn2nc(COc3ccccc3Cl)n(/N=C/c3ccc(-c4ccc(Cl)cc4Cl)o3)c2=S)cc1Cl`, the Activity in the assay with Fusarium sp. came out at 75 mm; in the assay on Alternaria solani, 57 mm; in the assay with Plasmopara viticola, 100%. The result with Amaranthus viridis [3], in the assay with Cynodon dactylon [4], with Digitaria sanguinalis [5], in the assay on Parthenium hysterophorus [6], in the assay on Amaranthus viridis [7] and with Euphorbia hirta [8] was inactive. For the same compound, in the assay with Digitaria sanguinalis [9], the result was inactive.
As for `CCCCC(O)(Cn1cncn1)c1ccc(Cl)cc1Cl` (stereo not given) [HEXACONAZOLE], the Activity with Fusarium sp. was 8 mm.
With `S=c1[nH]nc(COc2ccc(Cl)cc2)n1/N=C/c1ccc(-c2ccc(Cl)cc2Cl)o1`, the values for the Activity in the assay with Fusarium sp., in the assay with Alternaria solani and with Plasmopara viticola were 79 mm, 60 mm and 100%, respectively. For the same compound, the result in the assay with Amaranthus viridis [3], in the assay on Cynodon dactylon [4], in the assay with Digitaria sanguinalis [5], in the assay with Parthenium hysterophorus [6], with Amaranthus viridis [7] and in the assay with Euphorbia hirta [8] was inactive. Further, the outcome in the assay on Digitaria sanguinalis [9] was inactive.
As for `S=c1[nH]nc(COc2ccc(Cl)cc2Cl)n1/N=C/c1ccc(-c2ccc(Cl)cc2Cl)o1`, the Activity in the assay with Fusarium sp. came to 80 mm; in the assay with Alternaria solani, 58 mm; with Plasmopara viticola, 100%. The outcome with Amaranthus viridis [3], in the assay with Cynodon dactylon [4], in the assay with Digitaria sanguinalis [5], in the assay with Parthenium hysterophorus [6], in the assay on Amaranthus viridis [7] and with Euphorbia hirta [8] was inactive. Moreover, the result in the assay with Digitaria sanguinalis [9] was inactive.
As for `O=C(O)CNCP(=O)(O)O`, the result in the assay with Amaranthus viridis [15], in the assay on Parthenium hysterophorus [16], in the assay with Cynodon dactylon [17], in the assay on Euphorbia hirta [18] and in the assay on Digitaria sanguinalis [19] was Active.
For `S=c1[nH]nc(COc2ccccc2Cl)n1/N=C/c1ccc(-c2ccc(Cl)cc2Cl)o1`, the Activity in the assay with Fusarium sp. came to 77.5 mm; in the assay on Alternaria solani it was 66 mm; in the assay with Plasmopara viticola, 100%. The result in the assay on Amaranthus viridis [3], in the assay on Cynodon dactylon [4], in the assay on Digitaria sanguinalis [5], in the assay on Parthenium hysterophorus [6], with Amaranthus viridis [7] and in the assay with Euphorbia hirta [8] was inactive. The result with Digitaria sanguinalis [9] was inactive.
Turning to `Cc1cc(OCc2nn(CNc3ccc(F)c(Cl)c3)c(=S)n2/N=C/c2ccc(-c3ccc(Cl)cc3Cl)o2)ccc1Cl`, the Activity stood at 72 mm with Fusarium sp., 49 mm in the assay on Alternaria solani and 100% in the assay on Plasmopara viticola. Moreover, the result in the assay with Amaranthus viridis [3], in the assay on Cynodon dactylon [4], in the assay on Digitaria sanguinalis [5], in the assay on Parthenium hysterophorus [6], with Amaranthus viridis [7] and with Euphorbia hirta [8] was inactive. Moreover, in the assay on Digitaria sanguinalis [9], the outcome was inactive.
Turning to `Cc1cc(OCc2n[nH]c(=S)n2/N=C/c2ccc(-c3ccc(Cl)cc3Cl)o2)ccc1Cl`, the Activity with Fusarium sp. came to 76 mm; in the assay with Alternaria solani it was 56 mm; with Plasmopara viticola it was 100%. The result with Amaranthus viridis [3], in the assay on Cynodon dactylon [4], with Digitaria sanguinalis [5], in the assay with Parthenium hysterophorus [6], in the assay on Amaranthus viridis [7] and in the assay with Euphorbia hirta [8] was inactive. Further, the result in the assay on Digitaria sanguinalis [9] was inactive.
For the compound `Fc1ccc(NCn2nc(COc3ccc(Cl)cc3Cl)n(/N=C/c3ccc(-c4ccc(Cl)cc4Cl)o3)c2=S)cc1Cl`, the Activity was found to be 73 mm in the assay on Fusarium sp., 51 mm in the assay on Alternaria solani and 100% in the assay on Plasmopara viticola. The outcome with Amaranthus viridis [3], in the assay with Cynodon dactylon [4], in the assay on Digitaria sanguinalis [5], in the assay on Parthenium hysterophorus [6], in the assay with Amaranthus viridis [7] and in the assay on Euphorbia hirta [8] was inactive. Moreover, the result in the assay on Digitaria sanguinalis [9] was inactive.
Take `CCNc1nc(Cl)nc(NC(C)C)n1`: the result in the assay with Digitaria sanguinalis [20] and with Amaranthus viridis [21] was Active.

(Values after ChEMBL document CHEMBL3045762, “Studies on arylfuran derivatives. Part XI. Synthesis, characterisation and biological studies on some Mannich bases carrying 2,4-dichlorophenylfurfural moiety” (2000).)
